Experimental data taken from patent EP3720857B1, “2-OXO-5H-CHROMENO[4,3-B]PYRIDINES FOR USE IN THE TREATMENT OF HEPATITIS B” (Galapagos NV, priority 2017, dated 2019).

tested on: hepatitis virus B (HBV) infection; assay: HepG2 NTCP assay (HBcAg staining as marker of HBV infection); format: cell-based; settings: HepG2-NTCP cells infected with HBV, HBV core antigen (HBcAg) as marker of infection
Method in brief: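 HepG2-NTCP cells were infected with HBV (4% PEG, 1% DMSO) in the presence of compound overnight, then re-dosed and incubated 5 days at 37 °C. HBcAg immunofluorescence was imaged, with DAPI nuclei count taken as toxicity. Ten-point 1/3 dilutions gave % inhibition against 0.2% DMSO vehicle and 100 nM Myrcludex B, with dose-response curves fitted.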

IC50, 0.001 to 1 nM:
COCCCOc1cc2c(cc1F)-c1c(cc(C(=O)O)c(=O)n1C1CC1)C(C(C)C)O2 (stereo not drawn) [Compound 1, 1-cyclopropyl-9-fluoro-5-isopropyl-8-(3-methoxypropoxy)-2-oxo-5H-chromeno[4,3-b]pyridine-3-carboxylic acid]
COCCCOc1cc2c(cc1Cl)-c1c(cc(C(=O)O)c(=O)n1C1CC1)CO2 [Compound 6, 9-chloro-1-cyclopropyl-8-(3-methoxypropoxy) -2-oxo-5H-chromeno[4,3-b]pyridine-3-carboxylic acid]
CCC1Oc2cc(OCCCOC)c(F)cc2-c2c1cc(C(=O)O)c(=O)n2C1CC1 (stereo not drawn) [Compound 16, 1-cyclopropyl-5-ethyl-9-fluoro-8-(3-methoxypropoxy) -2-oxo-5H-chromeno[4,3-b]pyridine-3-carboxylic acid]
COCCCOc1cc2c(cc1Cl)-c1c(cc(C(=O)O)c(=O)n1C1CC1)C(C(C)(C)COC)O2 (stereo not drawn) [Compound 19, 9-chloro-1-cyclopropyl-5-(2-methoxy-1,1-dimethyl-ethyl)-8-(3-methoxypropoxy) -2-oxo-5H-chromeno[4,3-b]pyridine-3-carboxylic acid]
COCCCOc1cc2c(cc1F)-c1c(cc(C(=O)O)c(=O)n1C1CC1)[C@H](C(C)C)O2 [Compound 44, (5S)-1-cyclopropyl-9-fluoro-5-isopropyl-8-(3-methoxypropoxy)-2-oxo-5H-chromeno[4,3-b]pyridine-3-carboxylic acid]
COCCCOc1cc2c(cc1Cl)-c1c(cc(C(=O)O)c(=O)n1C1CC1)[C@H](C1(C)COC1)O2 [Compound 46, (5R)-9-chloro-1-cyclopropyl-8-(3-methoxypropoxy)-5-(3-methyloxetan-3-yl)-2-oxo-5H-chromeno[4,3-b]pyridine-3-carboxylic acid]
